Results from patent publication US8192962B2, “Processes for detecting toxic substances” (Daikin Industries, Ltd., priority 2001, dated 2012).

Tested on: Metabolism protein genes
Test: DNA chip mRNA expression in yeast, metabolism protein genes (Table 7)
Format: cell-based, Saccharomyces cerevisiae S288C
In short: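 Measured as treated-to-untreated fluorescence ratio on a full-genome yeast DNA chip. Cells (S288C, YPD, 25° C.) were exposed in log phase for two hours to one chemical, dosed to curb growth without killing.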

Structure (SMILES): [Cl][Hg][Cl] [(3), HgCl2]
- The level of expressed mRNA in the presence of chemical substance/The level of expressed mRNA in the absence of chemical substance (yeast gene YJR155W): 1.4
- The level of expressed mRNA in the presence of chemical substance/The level of expressed mRNA in the absence of chemical substance (yeast gene YKL035W): 4.8
- level of expressed mRNA in the presence/in the absence of chemical substance (yeast gene YKL060C): 2.5
- The level of expressed mRNA in the presence of chemical substance/The level of expressed mRNA in the absence of chemical substance (yeast gene YKL091C): 1.4
- The level of expressed mRNA in the presence of chemical substance/The level of expressed mRNA in the absence of chemical substance (yeast gene YKL104C): 1.6
- level of expressed mRNA in the presence/in the absence of chemical substance (yeast gene YKL148C): 3.7
- The level of expressed mRNA in the presence of chemical substance/The level of expressed mRNA in the absence of chemical substance (yeast gene YKL152C): 1.9
- level of expressed mRNA in the presence/in the absence of chemical substance (yeast gene YKL157W): 2.3
- The level of expressed mRNA in the presence of chemical substance/The level of expressed mRNA in the absence of chemical substance (yeast gene YKL213C): 1.0
- The level of expressed mRNA in the presence of chemical substance/The level of expressed mRNA in the absence of chemical substance (yeast gene YKL215C): 1.3
- level of expressed mRNA in the presence/in the absence of chemical substance (yeast gene YKR034W): 1.1
- The level of expressed mRNA in the presence of chemical substance/The level of expressed mRNA in the absence of chemical substance (yeast gene YLL058W): 1.4
- level of expressed mRNA in the presence/in the absence of chemical substance (yeast gene YLR006C): 0.9
- level of expressed mRNA in the presence/in the absence of chemical substance (yeast gene YLR044C): 2.2
- level of expressed mRNA in the presence/in the absence of chemical substance (yeast gene YLR056W): 2.5
- level of expressed mRNA in the presence/in the absence of chemical substance (yeast gene YLR058C): 5.5
- level of expressed mRNA in the presence/in the absence of chemical substance (yeast gene YLR081W): 2.8
- level of expressed mRNA in the presence/in the absence of chemical substance (yeast gene YLR089C): 2.1
- The level of expressed mRNA in the presence of chemical substance/The level of expressed mRNA in the absence of chemical substance (yeast gene YLR180W): 2.4
- The level of expressed mRNA in the presence of chemical substance/The level of expressed mRNA in the absence of chemical substance (yeast gene YLR273C): 1.3
- level of expressed mRNA in the presence/in the absence of chemical substance (yeast gene YLR284C): 3.8
- The level of expressed mRNA in the presence of chemical substance/The level of expressed mRNA in the absence of chemical substance (yeast gene YLR299W): 1.5
- The level of expressed mRNA in the presence of chemical substance/The level of expressed mRNA in the absence of chemical substance (yeast gene YLR300W): 0.8
- level of expressed mRNA in the presence/in the absence of chemical substance (yeast gene YLR304C): 5.0
- The level of expressed mRNA in the presence of chemical substance/The level of expressed mRNA in the absence of chemical substance (yeast gene YLR307W): 0.7
- The level of expressed mRNA in the presence of chemical substance/The level of expressed mRNA in the absence of chemical substance (yeast gene YLR348C): 1.2
- level of expressed mRNA in the presence/in the absence of chemical substance (yeast gene YLR354C): 2.3
- level of expressed mRNA in the presence/in the absence of chemical substance (yeast gene YLR372W): 1.7
- level of expressed mRNA in the presence/in the absence of chemical substance (yeast gene YML022W): 2.0
- The level of expressed mRNA in the presence of chemical substance/The level of expressed mRNA in the absence of chemical substance (yeast gene YML054C): 1.3
- The level of expressed mRNA in the presence of chemical substance/The level of expressed mRNA in the absence of chemical substance (yeast gene YML070W): 2.5
- The level of expressed mRNA in the presence of chemical substance/The level of expressed mRNA in the absence of chemical substance (yeast gene YML100W): 10.6
- The level of expressed mRNA in the presence of chemical substance/The level of expressed mRNA in the absence of chemical substance (yeast gene YMR008C): 1.4
- level of expressed mRNA in the presence/in the absence of chemical substance (yeast gene YMR011W): 9.4
- level of expressed mRNA in the presence/in the absence of chemical substance (yeast gene YMR015C): 1.9
- The level of expressed mRNA in the presence of chemical substance/The level of expressed mRNA in the absence of chemical substance (yeast gene YMR020W): 0.9
- level of expressed mRNA in the presence/in the absence of chemical substance (yeast gene YMR083W): 2.6
- The level of expressed mRNA in the presence of chemical substance/The level of expressed mRNA in the absence of chemical substance (yeast gene YMR105C): 5.0
- The level of expressed mRNA in the presence of chemical substance/The level of expressed mRNA in the absence of chemical substance (yeast gene YMR189W): 1.9
- level of expressed mRNA in the presence/in the absence of chemical substance (yeast gene YMR205C): 2.3
- level of expressed mRNA in the presence/in the absence of chemical substance (yeast gene YMR261C): 3.6
- The level of expressed mRNA in the presence of chemical substance/The level of expressed mRNA in the absence of chemical substance (yeast gene YMR271C): 1.3
- The level of expressed mRNA in the presence of chemical substance/The level of expressed mRNA in the absence of chemical substance (yeast gene YMR296C): 1.2
- level of expressed mRNA in the presence/in the absence of chemical substance (yeast gene YMR323W): 2.9
- The level of expressed mRNA in the presence of chemical substance/The level of expressed mRNA in the absence of chemical substance (yeast gene YNL012W): 1.8
- level of expressed mRNA in the presence/in the absence of chemical substance (yeast gene YNL025C): 1.4
- The level of expressed mRNA in the presence of chemical substance/The level of expressed mRNA in the absence of chemical substance (yeast gene YNL045W): 2.0
- The level of expressed mRNA in the presence of chemical substance/The level of expressed mRNA in the absence of chemical substance (yeast gene YNL104C): 3.0
- The level of expressed mRNA in the presence of chemical substance/The level of expressed mRNA in the absence of chemical substance (yeast gene YNL106C): 0.8
- The level of expressed mRNA in the presence of chemical substance/The level of expressed mRNA in the absence of chemical substance (yeast gene YNL169C): 1.4
- level of expressed mRNA in the presence/in the absence of chemical substance (yeast gene YNL192W): 1.5
- The level of expressed mRNA in the presence of chemical substance/The level of expressed mRNA in the absence of chemical substance (yeast gene YNL231C): 0.8
- The level of expressed mRNA in the presence of chemical substance/The level of expressed mRNA in the absence of chemical substance (yeast gene YNL322C): 1.9
- The level of expressed mRNA in the presence of chemical substance/The level of expressed mRNA in the absence of chemical substance (yeast gene YNL331C): 1.3
- The level of expressed mRNA in the presence of chemical substance/The level of expressed mRNA in the absence of chemical substance (yeast gene YNL332W): 1.1
- The level of expressed mRNA in the presence of chemical substance/The level of expressed mRNA in the absence of chemical substance (yeast gene YNR019W): 1.6
- The level of expressed mRNA in the presence of chemical substance/The level of expressed mRNA in the absence of chemical substance (yeast gene YNR033W): 0.8
- The level of expressed mRNA in the presence of chemical substance/The level of expressed mRNA in the absence of chemical substance (yeast gene YNR059W): 0.2
- The level of expressed mRNA in the presence of chemical substance/The level of expressed mRNA in the absence of chemical substance (yeast gene YOL058W): 1.7
- level of expressed mRNA in the presence/in the absence of chemical substance (yeast gene YOL086C): 2.2
- level of expressed mRNA in the presence/in the absence of chemical substance (yeast gene YOL108C): 0.4
- level of expressed mRNA in the presence/in the absence of chemical substance (yeast gene YOL116W): 0.9
- The level of expressed mRNA in the presence of chemical substance/The level of expressed mRNA in the absence of chemical substance (yeast gene YOL126C): 1.0
- The level of expressed mRNA in the presence of chemical substance/The level of expressed mRNA in the absence of chemical substance (yeast gene YOL153C): 2.1
- level of expressed mRNA in the presence/in the absence of chemical substance (yeast gene YOL156W): 2.5
- The level of expressed mRNA in the presence of chemical substance/The level of expressed mRNA in the absence of chemical substance (yeast gene YOL165C): 1.8
- level of expressed mRNA in the presence/in the absence of chemical substance (yeast gene YOR002W): 1.9
- level of expressed mRNA in the presence/in the absence of chemical substance (yeast gene YOR085W): 1.9
- The level of expressed mRNA in the presence of chemical substance/The level of expressed mRNA in the absence of chemical substance (yeast gene YOR099W): 2.1
- level of expressed mRNA in the presence/in the absence of chemical substance (yeast gene YOR103C): 1.3
- level of expressed mRNA in the presence/in the absence of chemical substance (yeast gene YOR108W): 2.3
- level of expressed mRNA in the presence/in the absence of chemical substance (yeast gene YOR128C): 2.1
- The level of expressed mRNA in the presence of chemical substance/The level of expressed mRNA in the absence of chemical substance (yeast gene YOR130C): 1.4
- level of expressed mRNA in the presence/in the absence of chemical substance (yeast gene YOR142W): 3.4
- level of expressed mRNA in the presence/in the absence of chemical substance (yeast gene YOR176W): 2.7
- level of expressed mRNA in the presence/in the absence of chemical substance (yeast gene YOR178C): 4.8
- level of expressed mRNA in the presence/in the absence of chemical substance (yeast gene YOR251C): 1.3
- The level of expressed mRNA in the presence of chemical substance/The level of expressed mRNA in the absence of chemical substance (yeast gene YOR336W): 0.7
- The level of expressed mRNA in the presence of chemical substance/The level of expressed mRNA in the absence of chemical substance (yeast gene YOR347C): 2.1
- level of expressed mRNA in the presence/in the absence of chemical substance (yeast gene YOR348C): 1.2
- The level of expressed mRNA in the presence of chemical substance/The level of expressed mRNA in the absence of chemical substance (yeast gene YPL017C): 0.8
- level of expressed mRNA in the presence/in the absence of chemical substance (yeast gene YPL028W): 2.6
- level of expressed mRNA in the presence/in the absence of chemical substance (yeast gene YPL057C): 3.2
- level of expressed mRNA in the presence/in the absence of chemical substance (yeast gene YPL135W): 2.5
- level of expressed mRNA in the presence/in the absence of chemical substance (yeast gene YPL148C): 0.9
- The level of expressed mRNA in the presence of chemical substance/The level of expressed mRNA in the absence of chemical substance (yeast gene YPR026W): 5.0
- level of expressed mRNA in the presence/in the absence of chemical substance (yeast gene YPR113W): 3.7
- level of expressed mRNA in the presence/in the absence of chemical substance (yeast gene YPR165W): 1.6
- The level of expressed mRNA in the presence of chemical substance/The level of expressed mRNA in the absence of chemical substance (yeast gene YPR167C): 1.9
- level of expressed mRNA in the presence/in the absence of chemical substance (yeast gene YPR183W): 3.5
